Laboratory results taken from US20090054389A1, “Topical Composition Comprising an Antibacterial Substance” (Leo Pharma A/S, priority 2006, published 2009).

Legend:
[1] = system: intracellular and extracellular M. leprae; details: cited from earlier work
[2] = In vitro skin penetration study (Franz diffusion cells, radiolabelled compositions); details: barrier-impaired skin; versus fusidic acid in a monoglyceride composition, or versus composition without stabilising agent

Structure (SMILES)	potency against M. leprae [1]	degree of retention in dermis and epidermis, comparison [2]
CC(=O)O[C@H]1C[C@@]2(C)[C@@H](C[C@@H](O)[C@H]3[C@@]4(C)CC[C@@H](O)[C@@H](C)[C@@H]4CC[C@@]32C)/C1=C(\CCC=C(C)C)C(=O)O [fusidic acid, Fusidic acid]	highly potent	–
CC(=O)O[C@H]1C[C@@]2(C)[C@@H](C[C@@H](O)[C@H]3[C@@]4(C)CC[C@@H](O)[C@@H](C)[C@@H]4CC[C@@]32C)/C1=C(\CCC(Br)=C(C)C)C(=O)O [11-^3H 24-bromo-fusidic acid, 24-Bromo-fusidic acid]	–	significantly higher
